Data from patent US20080139386A1 (priority 2004, published 2008).
Read-outs that look alike come from different tables or passages of the source.

Test system: Pyricularia oryzae
Type: in vivo
Settings: rice seedlings cultivar Tai-Nong 67, protective, inoculated next day, assessed after six days

SMILES: CC1CCN(c2c(-c3c(F)cc(F)cc3F)c(Cl)nc3ncnn23)CC1 [compound I, 5-chloro-7-(4-methylpiperidin-1-yl)-6-(2,4,6-trifluorophenyl)-[1,2,4]triazolo[1,5-a]pyrimidine]
- Efficacy in % of the untreated control (4 ppm active compound in the spray liquor): 31%

SMILES: O=C(Nc1ccccc1)N(Cc1ccc(Cl)cc1)C1CCCC1 [compound II, 1-(4-chlorobenzyl)-1-cyclopentyl-3-phenylurea]
- Efficacy in % of the untreated control (1 ppm active compound in the spray liquor): 0%
- Efficacy in % of the untreated control (16 ppm active compound in the spray liquor): 0%
